Experimental data from patent US20080090805A1, “CB-1 MODULATING COMPOUNDS AND THEIR USE” (ACADIA PHARMACEUTICALS INC., priority 2005, published 2008).

Biological target: native CB1 receptors (Rattus norvegicus, UniProt P20272)
Assay: CB1 receptor rat binding assay ([3H]SR141716A, rat brain membranes)
Settings: rat brain membranes, [3H]SR141716A; for Ki: read-out: Binding rat pKi (converted)

Chain of native CB1 receptors (P20272 whole entry): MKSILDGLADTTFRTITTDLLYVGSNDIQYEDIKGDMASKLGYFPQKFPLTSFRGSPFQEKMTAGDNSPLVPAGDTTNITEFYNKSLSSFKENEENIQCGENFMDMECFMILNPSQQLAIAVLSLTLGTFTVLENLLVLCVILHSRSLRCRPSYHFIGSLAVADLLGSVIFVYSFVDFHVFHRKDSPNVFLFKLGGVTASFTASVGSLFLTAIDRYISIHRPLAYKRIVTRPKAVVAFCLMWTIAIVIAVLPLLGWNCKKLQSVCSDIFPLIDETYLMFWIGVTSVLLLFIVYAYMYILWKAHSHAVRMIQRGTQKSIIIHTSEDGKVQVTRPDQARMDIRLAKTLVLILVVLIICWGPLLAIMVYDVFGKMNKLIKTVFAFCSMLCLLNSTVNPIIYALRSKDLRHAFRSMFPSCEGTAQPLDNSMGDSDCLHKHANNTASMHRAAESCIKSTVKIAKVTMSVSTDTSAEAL

With `O=C(NCc1ccccc1Cl)c1ccc2c(c1)N=C(c1ccc(Cl)cc1)c1ccccc1S2` [drawing 1341] the Ki was 25.1 nM.

In the case of `O=C(NN1CCCCCC1)c1ccc2c(c1)N=C(c1ccccc1F)c1ccccc1S2` [drawing 1342], the “Binding rat Inh %” value is reported as 101% and the Ki is reported as 25.1 nM.

Compound `O=C(NCc1ccccc1)c1ccc2c(c1)N=C(C1CCCCC1)c1ccccc1S2` [drawing 1343] has a Ki of 3.98 nM.

In the case of `Cc1ccsc1C1=Nc2cc(C(=O)NCc3cccs3)ccc2Sc2ccccc21` [drawing 1344], the “Binding rat Inh %” value is reported as 99% and the Ki is reported as 3.98 nM.

`O=C(NCCc1ccc(Cl)cc1)c1ccc2c(c1)N=C(N1CCCCC1)c1ccccc1S2` [drawing 1345] was tested, and the Ki was 3.98 nM.

With `Cc1ccc(CNC(=O)c2ccc3c(c2)N=C(c2ccsc2)c2ccccc2S3)o1` [drawing 1346] the “Binding rat Inh %” value was 89% and the Ki was 3.98 nM.

In the case of `CCCCNC(=O)c1ccc2c(c1)N=C(c1ccccc1F)c1ccccc1S2` [drawing 1348], the Ki is reported as 25.1 nM.

With `CC(C)CCNC(=O)c1ccc2c(c1)N=C(c1ccccn1)c1ccccc1S2` [drawing 1349] the “Binding rat Inh %” value was 86% and the Ki was 31.6 nM.

With `CCOC(=O)c1ccc(C2=Nc3cc(C(=O)NCc4cccnc4)ccc3Sc3ccccc32)cc1` [drawing 1350] the “Binding rat Inh %” value was 90% and the Ki was 31.6 nM.

With `COc1ccc(C2=Nc3cc(C(=O)NCCC(C)C)ccc3Sc3ccccc32)cc1` [drawing 1351] the “Binding rat Inh %” value was 81% and the Ki was 3.98 nM.

Work on `O=C(NCc1ccc(F)cc1)c1ccc2c(c1)N=C(c1ccccc1)c1ccccc1S2` [drawing 1352] yielded a Ki of 3.98 nM.

For `Cc1cccc(C2=Nc3cc(C(=O)NCc4ccc(C)o4)ccc3Sc3ccccc32)n1` [drawing 1353], the “Binding rat Inh %” value was 108% and the Ki was 3.98 nM.

`CC(C)CNC(=O)c1ccc2c(c1)N=C(c1ccc(Br)cc1)c1ccccc1S2` [drawing 1354] was tested, and the “Binding rat Inh %” value was 77% and the Ki was 3.98 nM.

Work on `O=C(NCc1ccccc1Br)c1ccc2c(c1)N=C(c1ccccc1F)c1ccccc1S2` [drawing 1355] yielded a Ki of 31.6 nM.

With `C[C@@H]1CCC[C@H](C)N1NC(=O)c1ccc2c(c1)N=C(c1ccc(F)cc1)c1ccccc1S2` [drawing 1356] the “Binding rat Inh %” value was 108% and the Ki was 31.6 nM.

Work on `CCCC1=Nc2cc(C(=O)NCCCc3ccccc3)ccc2Sc2ccccc21` [drawing 1357] yielded a Ki of 31.6 nM.

In the case of `COCCNC(=O)c1ccc2c(c1)N=C(c1ccc(Br)cc1)c1ccccc1S2` [drawing 1358], the “Binding rat Inh %” value is reported as 89% and the Ki is reported as 31.6 nM.

For `CC(C)CNC(=O)c1ccc2c(c1)N=C(c1ccc(Cl)s1)c1ccc(F)cc1S2` [drawing 1359], the “Binding rat Inh %” value was 95% and the Ki was 3.98 nM.

With `O=C(NCCC(F)(F)F)c1ccc2c(c1)N=C(c1ccc(Cl)cc1)c1ccccc1S2` [drawing 1360] the “Binding rat Inh %” value was 99% and the Ki was 3.98 nM.

`CC(C)CNC(=O)c1ccc2c(c1)N=C(c1cccc(Cl)c1)c1ccccc1S2` [drawing 1361] was tested, and the “Binding rat Inh %” value was 99% and the Ki was 3.98 nM.

With `CC(CNC(=O)c1ccc2c(c1)N=C(c1ccc(F)cc1)c1ccccc1S2)c1ccccc1` (centres unmarked) [drawing 1362] the Ki was 3.98 nM.

In the case of `CC(C)NC(=O)c1ccc2c(c1)N=C(c1ccc(Cl)cc1F)c1ccccc1S2` [drawing 1363], the “Binding rat Inh %” value is reported as 72% and the Ki is reported as 31.6 nM.

With `COc1ccc(C2=Nc3cc(C(=O)NC4CCCC4)ccc3Sc3ccccc32)cc1` [drawing 1364] the “Binding rat Inh %” value was 71% and the Ki was 31.6 nM.

Compound `O=C(NCc1ccccc1)c1ccc2c(c1)N=C(c1ccccc1F)c1ccccc1S2` [drawing 1365] has a Ki of 31.6 nM.

In the case of `O=C(NCc1ccccc1Cl)c1ccc2c(c1)N=C(N1CCCCC1)c1ccccc1S2` [drawing 1366], the Ki is reported as 31.6 nM.

With `O=C(NCCc1ccc(Cl)cc1)c1ccc2c(c1)N=C(c1ccc(F)cc1)c1ccccc1S2` [drawing 1367] the Ki was 3.98 nM.

In the case of `O=C(NCc1ccccc1)c1ccc2c(c1)N=C(c1ccc(Cl)cc1)c1ccccc1S2` [drawing 1368], the Ki is reported as 5.01 nM.

`O=C(NCc1ccco1)c1ccc2c(c1)N=C(c1ccc(Cl)cc1)c1ccccc1S2` [drawing 1369] was tested, and the “Binding rat Inh %” value was 93% and the Ki was 5.01 nM.
